Assay results from PubChem BioAssay AID1963864 (Molecular Pharmacology Branch, DTP, NCI, 2024).

Test system: KRAS PDC multicell spheroid viability
Assay: Anticancer human tumor 521955-158-R6-J3-PDC patient-derived pancreatic carcinoma cell line growth inhibition [KRAS2]
Conditions: for viability, T/C: stronger effect = lower value
Outline: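 KRAS-mutant tumor cells were grown as spheroids with HUVEC endothelial cells and human MSCs as stroma. Targeted agents were tested alone and with KRAS pathway inhibitors. Doses started at or near clinical Cmax, or 10 microM, descending half-log.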

[1] = curve of first compound, second compound 0.1 µM
[2] = curve of first compound, second compound 0.316 µM
[3] = curve of first compound, second compound 1 µM
[4] = curve of first compound, second compound 3.16 µM
[5] = curve of first compound, second compound 10 µM
[6] = second compound 0.1 µM, first compound 0.01 µM
[7] = second compound 0.1 µM, first compound 0.0316 µM
[8] = second compound 0.1 µM, first compound 0.1 µM
[9] = second compound 0.1 µM, first compound 0.316 µM
[10] = second compound 0.1 µM, first compound 1 µM
[11] = second compound 0.1 µM, first compound 3.16 µM
[12] = second compound 0.316 µM, first compound 0.01 µM
[13] = second compound 0.316 µM, first compound 0.0316 µM
[14] = second compound 0.316 µM, first compound 0.1 µM
[15] = second compound 0.316 µM, first compound 0.316 µM
[16] = second compound 0.316 µM, first compound 1 µM
[17] = second compound 0.316 µM, first compound 3.16 µM
[18] = second compound 1 µM, first compound 0.01 µM
[19] = second compound 1 µM, first compound 0.0316 µM
[20] = second compound 1 µM, first compound 0.1 µM
[21] = second compound 1 µM, first compound 0.316 µM
[22] = second compound 1 µM, first compound 1 µM
[23] = second compound 1 µM, first compound 3.16 µM
[24] = second compound 3.16 µM, first compound 0.01 µM
[25] = second compound 3.16 µM, first compound 0.0316 µM
[26] = second compound 3.16 µM, first compound 0.1 µM
[27] = second compound 3.16 µM, first compound 0.316 µM
[28] = second compound 3.16 µM, first compound 1 µM
[29] = second compound 3.16 µM, first compound 3.16 µM
[30] = second compound 10 µM, first compound 0.01 µM
[31] = second compound 10 µM, first compound 0.0316 µM
[32] = second compound 10 µM, first compound 0.1 µM
[33] = second compound 10 µM, first compound 0.316 µM
[34] = second compound 10 µM, first compound 1 µM
[35] = second compound 10 µM, first compound 3.16 µM
[36] = second compound 0.1 µM, first compound 10 µM
[37] = second compound 0.316 µM, first compound 10 µM
[38] = second compound 1 µM, first compound 10 µM
[39] = second compound 3.16 µM, first compound 10 µM
[40] = second compound 10 µM, first compound 10 µM
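Further: drug exposure lasted seven days.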
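Wherever viability, T/C is given: 100% = DMSO vehicle wells and lower means fewer viable cells.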

Row | SMILES | IC50 [1] [µM] | IC50 [2] [µM] | IC50 [3] [µM] | IC50 [4] [µM] | IC50 [5] [µM] | viability, T/C [7] [%] | viability, T/C [8] [%] | viability, T/C [9] [%] | viability, T/C [10] [%] | viability, T/C [11] [%] | viability, T/C [13] [%] | viability, T/C [14] [%] | viability, T/C [15] [%] | viability, T/C [16] [%] | viability, T/C [19] [%] | viability, T/C [20] [%] | viability, T/C [25] [%] | viability, T/C [26] [%] | viability, T/C [31] [%] | viability, T/C [32] [%] | also measured
1 | CC(=O)OC12COC1CC(O)C1(C)C(=O)C(O)C3=C(C)C(OC(=O)C(O)C(NC(=O)OC(C)(C)C)c4ccccc4)CC(O)(C(OC(=O)c4ccccc4)C21)C3(C)C (stereo not drawn) + CNCc1ccccc1-c1csc(C(C)Nc2nc(C)nc3cc(OC)c(OC)cc23)c1 | > 3.16 | > 3.16 | > 3.16 | < 0.01 | < 0.01 | 67.6 | 72.9 | 82.2 | 85.6 | 96.1 | 64.7 | 69.9 | 60.6 | 92 | 70.6 | 73.8 | 72.7 | 0.72 | 0.32 | 0.53 | viability, T/C [6]: 68.7%; viability, T/C [12]: 70.4%; viability, T/C [17]: 93.7%; viability, T/C [18]: 75.3%; viability, T/C [21]: 83.6%; viability, T/C [22]: 94.8%; viability, T/C [23]: 98.1%; viability, T/C [24]: 0.42%; viability, T/C [27]: 1.02%; viability, T/C [28]: 3.04%; viability, T/C [29]: 130%; viability, T/C [30]: 1.35%; viability, T/C [33]: 0.88%; viability, T/C [34]: 0.31%; viability, T/C [35]: 0.89%
2 | COc1cc2nc(C)nc(NC(C)c3cc(N)cc(C(F)(F)F)c3)c2cc1OC1CCOC1 (stereo not drawn) |  |  |  |  |  |  |  |  |  |  |  |  |  |  |  |  |  |  |  |  | viability, T/C (compound 0.1 µM): 86.7% [middle of 17 runs]; viability, T/C (compound 0.316 µM): 86.7% [middle of 17 runs]; IC50 (compound alone, run of 08/26/2021): 6.52 µM [middle of 5 runs]
3 | CN(C)C/C=C/C(=O)Nc1cc2c(Nc3ccc(F)c(Cl)c3)ncnc2cc1O[C@H]1CCOC1 + C=CC(=O)N1CCN(c2nc(=O)n(-c3c(C)ccnc3C(C)C)c3nc(-c4c(O)cccc4F)c(F)cc23)C(C)C1 | > 0.1 | > 0.1 | > 0.1 | > 0.1 | > 0.1 | 68.6 | 66.6 |  |  |  | 71.2 | 66.3 |  |  | 67.6 | 69.4 | 69.6 | 69.7 | 58.5 | 65.3 | viability, T/C (second compound 0.1 µM, first compound 0.000316 µM): 101%; viability, T/C (second compound 0.1 µM, first compound 0.001 µM): 92.9%; viability, T/C (second compound 0.1 µM, first compound 0.00316 µM): 85.4%; viability, T/C [6]: 72.8%; viability, T/C (second compound 0.316 µM, first compound 0.000316 µM): 119%; viability, T/C (second compound 0.316 µM, first compound 0.001 µM): 112%; viability, T/C (second compound 0.316 µM, first compound 0.00316 µM): 79.9%; viability, T/C [12]: 81.7%; viability, T/C (second compound 1 µM, first compound 0.000316 µM): 113%; viability, T/C (second compound 1 µM, first compound 0.001 µM): 92.2%; viability, T/C (second compound 1 µM, first compound 0.00316 µM): 102%; viability, T/C [18]: 79.8%; viability, T/C (second compound 3.16 µM, first compound 0.000316 µM): 112%; viability, T/C (second compound 3.16 µM, first compound 0.001 µM): 97%; viability, T/C (second compound 3.16 µM, first compound 0.00316 µM): 83.7%; viability, T/C [24]: 79%; viability, T/C (second compound 10 µM, first compound 0.000316 µM): 73.2%; viability, T/C (second compound 10 µM, first compound 0.001 µM): 109%; viability, T/C (second compound 10 µM, first compound 0.00316 µM): 66.7%; viability, T/C [30]: 62.3%
4 | CC1(C)CCC(CN2CCN(c3ccc(C(=O)NS(=O)(=O)c4ccc(NCC5CCOCC5)c([N+](=O)[O-])c4)c(Oc4cnc5[nH]ccc5c4)c3)CC2)=C(c2ccc(Cl)cc2)C1 + COc1cc2nc(C)nc(NC(C)c3cc(N)cc(C(F)(F)F)c3)c2cc1OC1CCOC1 | 8.21 | 8.72 | 6.08 | 2.81 | < 0.0316 | 103 | 100 | 91.6 | 107 | 77.8 | 90.8 | 102 | 95.7 | 81.7 | 90.1 | 99.3 | 68.9 | 67.5 | 19.5 | 23.6 | viability, T/C [36]: 44.3%; viability, T/C [17]: 70.5%; viability, T/C [37]: 47.1%; viability, T/C [21]: 88.1%; viability, T/C [22]: 89.5%; viability, T/C [23]: 63.1%; viability, T/C [38]: 40%; viability, T/C [27]: 69.3%; viability, T/C [28]: 74%; viability, T/C [29]: 47.7%; viability, T/C [39]: 30.3%; viability, T/C [33]: 17.3%; viability, T/C [34]: 31.4%; viability, T/C [35]: 18.6%; viability, T/C [40]: 4.55%
5 | COc1cc(Nc2ncc3c(n2)-c2ccc(Cl)cc2C(c2c(F)cccc2OC)=NC3)ccc1C(=O)O + COc1cc2nc(C)nc(NC(C)c3cc(N)cc(C(F)(F)F)c3)c2cc1OC1CCOC1 | > 10 | > 10 | > 10 | > 10 | < 0.0316 | 102 | 88.3 | 89 | 88.9 | 97.1 | 93.4 | 86.3 | 87.4 | 99.2 | 80.7 | 84.4 | 76 | 72.5 | 68.9 | 23.1 | viability, T/C [36]: 90.4%; viability, T/C [17]: 96.8%; viability, T/C [37]: 88.6%; viability, T/C [21]: 87.7%; viability, T/C [22]: 89.3%; viability, T/C [23]: 95.3%; viability, T/C [38]: 83.4%; viability, T/C [27]: 82.1%; viability, T/C [28]: 78.5%; viability, T/C [29]: 80.6%; viability, T/C [39]: 71.2%; viability, T/C [33]: 30%; viability, T/C [34]: 31.2%; viability, T/C [35]: 56.8%; viability, T/C [40]: 23%
